Values after ≈ are worked out from the molar mass of the structure shown.
conditions: buffer; pH 7.4; 200.0 µM

| solubility kinetic [µg/mL] | Structure (SMILES) |
| --- | --- |
| > 52 | CC(OC(=O)CNC(=O)C1CCCCC1)C(=O)NCc1ccccc1 (stereo unspecified) |
| 8.6 (≈ 32.8 µM) | COc1ccccc1CCC(=O)Nc1nccs1 |
| 1.1 (≈ 3.06 µM) | O=C(Nc1ccc(Cl)cc1)Nc1ccc(C(=O)N2CCOCC2)cc1 |
| 7.3 (≈ 20.3 µM) | O=C(CN1C(=O)NC2(CCCCCC2)C1=O)Nc1ccccc1[N+](=O)[O-] |
| > 45.5 | CC(OC(=O)c1cccs1)C(=O)NCCc1ccccc1 (stereo unspecified) |
| 35.9 (≈ 130 µM) | CCOC(=O)Oc1ccc(/C=C2\N=C(C)OC2=O)cc1 |
| 2.9 (≈ 6.9 µM) | CCOc1ccc(NC(=O)COc2ccc(S(=O)(=O)N3CCOCC3)cc2)cc1 |
| > 49.4 | O=C(COC(=O)C1=COCCO1)Nc1ccccc1OC(F)F |
| > 47 | CN(Cc1cccnc1)C(=O)CNC(=O)COc1ccccc1 |
| 9.5 (≈ 27.3 µM) | O=C(Cc1c(F)cccc1Cl)OCC(=O)N1CCc2ccccc21 |
| 3 (≈ 10.7 µM) | C=CCOc1cccc(C2NC(=O)c3ccccc3O2)c1 (stereo unspecified) |
| > 39.8 | COc1cccc(OCC(=O)NCC2CCCO2)c1 (stereo unspecified) |
| 2.6 (≈ 9.14 µM) | CNC(=O)COC(=O)c1ccccc1Nc1ccccc1 |
| 42 (≈ 141 µM) | CC(NC(=O)CCc1ccccc1)c1ccc2c(c1)OCO2 (stereo unspecified) |
| > 49.8 | Cc1ccc(C)c(NC(=O)CN(C)C(=O)c2ccc(Cl)nc2)c1 |
| 9.1 (≈ 30.7 µM) | O=C(COC(=O)CC1CCCC1)Nc1ccc(Cl)cn1 |
| 37.6 (≈ 138 µM) | CCOc1ccccc1Nc1ccc(C(=O)O)cc1N |
| 5.7 (≈ 17.4 µM) | COCCN(C(=O)c1ccco1)c1nc(-c2ccccc2)cs1 |
| 6.1 (≈ 21.8 µM) | Cc1ccc(C)c(C(=O)CN2Cc3ccccc3C2=O)c1 |
| 39.9 (≈ 139 µM) | O=C(COC(=O)c1ccccn1)c1ccc([N+](=O)[O-])cc1 |
| > 50.6 | COC(=O)c1sc(-c2cccs2)cc1NC(=O)/C=C/C(=O)O |
| 12.2 (≈ 55.2 µM) | Fc1cc(F)nc(NCc2ccccc2)n1 |
| > 51.3 | CC(C)[C@H](Nc1ccc(C(F)(F)F)cc1[N+](=O)[O-])C(=O)O.[Cl-] |
| > 44.6 | Cc1ccc(C(=O)OCC(=O)N(C)c2ccccc2)c(C)c1 |
| 10.1 (≈ 28.5 µM) | CC(C)C(=O)Nc1c(-c2cccc(Cl)c2)c(=O)c2ccccc2n1C |
| > 49.2 | O=C(COC(=O)C1CCC(=O)N1)Nc1ccccc1OC(F)F (stereo unspecified) |

| solubility kinetic [µg/mL] | Structure (SMILES) |
| --- | --- |
| > 40.4 | O=C(CCNC(=O)c1ccccc1)Nc1cccnc1 |
| < 0.7 | Cc1cc(-c2ccccc2)oc(=O)c1NC(=O)c1ccccc1 |
| 3.4 (≈ 12.4 µM) | COc1ccc(NC(=O)Nc2cnccn2)c(OC)c1 |
| 49 (≈ 150 µM) | COC(CNC(=O)c1ccc2nc3ccccc3c(=O)n2c1)OC |
| > 32.2 | Cc1cccc(C)c1NC(=O)CN.Cl |
| 34.8 (≈ 79.7 µM) | COc1ccc(NC(=O)CCOc2ccccc2F)cc1S(=O)(=O)N1CCCCC1 |
| > 50.6 | CN(CCO)C(=O)c1ccc(-c2nn(C)c(=O)c3ccccc23)cc1 |
| 7.3 (≈ 18.6 µM) | NC(=O)c1ccc(NC(=O)COC(=O)/C=C/c2ccc(Br)o2)cc1 |
| > 52.1 | CC(C)N(Cc1ccccc1)C(=O)COC(=O)c1c(F)cccc1F |
| > 64.4 | NS(=O)(=O)c1ccc(CCNC(=O)COC(=O)CCc2c[nH]c3ccccc23)cc1 |
| 6.7 (≈ 17.3 µM) | CSc1ccccc1NC(=O)CN(C)CC(=O)c1[nH]c(C)c(C(C)=O)c1C |
| 5.9 (≈ 18.9 µM) | Cc1cccc(NC(=O)COC(=O)CCc2ccccc2)c1C |
| 1.6 (≈ 4.89 µM) | CCCOc1ccc(C(=O)NC2CCSc3ccccc32)cc1 (stereo unspecified) |
| 4.4 (≈ 11 µM) | O=C(CN1C(=O)NC2(CCc3ccccc32)C1=O)c1ccc(Br)cc1 (stereo unspecified) |
| 3.2 (≈ 11.7 µM) | Cc1ccc(OCC(=O)Nc2ccccc2F)cc1C |
| > 49.4 | CSc1ncccc1C(=O)Nc1ccccc1N1CCOCC1 |
| 4.8 (≈ 14.5 µM) | O=C(Cc1c(F)cccc1Cl)NCCc1c[nH]c2ccccc12 |
| 3.7 (≈ 9.86 µM) | O=C(COC(=O)/C=C/c1ccc([N+](=O)[O-])cc1)NC(=O)NC1CCCCC1 |
| 23 (≈ 71.3 µM) | Cc1ccc(NC(=O)Cc2c(O)c3ccccc3[nH]c2=O)c(C)c1 |
| > 47.6 | COc1ccc(CCC(=O)OCC(=O)c2ccc[nH]2)cc1OC |
| 6.4 (≈ 13.6 µM) | NS(=O)(=O)c1cccc(NC(=O)CSc2nc3ccccc3c(=O)n2Cc2ccco2)c1 |
| 14 (≈ 48.1 µM) | Cc1ccc(C(=O)OCC(=O)N2CCCCCC2)c(O)c1 |
| 35.1 (≈ 108 µM) | O=C(COC(=O)Cc1ccc(Cl)cc1)NCc1cccs1 |
| > 38.3 | O=C(Cc1ccc(O)cc1)N/N=C/c1cccnc1 |
| > 41.1 | O=C(c1cc(-c2ccc(O)cc2)on1)N1CCOCC1 |

The remaining lines, values behind:

| Structure (SMILES) | solubility kinetic [µg/mL] |
| --- | --- |
| CNC(=O)c1cccc2nc3ccccc3nc12 | > 35.6 |
| CC(C)CCCC(C)CCOC(=O)CN1CCCC1 (stereo unspecified) | 1.9 (≈ 7.05 µM) |
| O=C(Nc1cccc(S(=O)(=O)N2CCCC2)c1)c1cccnc1 | 37.7 (≈ 114 µM) |
| CN(C(=O)c1ccc(Br)cc1)C1CCS(=O)(=O)C1 (stereo unspecified) | > 49.8 |
| Cc1cccc(NC(=O)c2cccnc2Cl)n1 | > 37.2 |
| CSc1nc(C)[nH]c(=O)c1C#N | > 27.2 |
| CCCCN(C(=O)c1ccc2c(c1)OCO2)C1CCS(=O)(=O)C1 (stereo unspecified) | > 50.9 |
| COc1ccc(Nc2nc(NCC3CCCO3)nc(N)c2[N+](=O)[O-])cc1 (stereo unspecified) | 1.7 (≈ 4.72 µM) |
| CC12CC3CC(C)(C1)CC(C(=O)N1CCCC1)(C3)C2 | 3.9 (≈ 14.9 µM) |
| Cc1nc(-c2ccc(C#N)cc2)cs1 | 13.5 (≈ 67.4 µM) |
| Cc1c(C(=O)O)cc(-c2ccccc2)n1Cc1ccccc1 | > 43.7 |
| Cc1sc(NC(=O)CCC(=O)O)c(C#N)c1C | > 37.8 |
| Cc1ccc(S(=O)(=O)NCc2ccccn2)c(C)c1 | > 41.5 |
| COc1cc(OC)cc(C(=O)NCC(=O)OC2CCCCC2=O)c1 (stereo unspecified) | > 50.3 |
| N#C/C(=C/c1cccc(O)c1)C(=O)NCc1ccc(Cl)cc1 | 1.3 (≈ 4.16 µM) |
| Cc1snc(SCc2cccc(Cl)c2)c1C#N | < 0.3 |
| Cc1cccc2c1NC(=O)C2(O)N1CCCC(C)C1 (stereo unspecified) | > 39.1 |
| N/C(CS(=O)(=O)c1ccc(F)cc1)=N\O | > 34.8 |

| Structure (SMILES) | solubility kinetic [µg/mL] |
| --- | --- |
| CC1(C(=O)N2CCOCC2)CCCCC1 | 26.3 (≈ 124 µM) |
| COc1cc(OC)c(C(=O)O/N=C(\N)c2ccc(C)cc2)cc1OC | > 51.7 |
| CC(C)Cc1cc(C(=O)Nc2ccc(Br)cc2)no1 | < 0.3 |
| CCOc1cccc(CNc2ccc(O)cc2)c1OCc1ccc(Cl)cc1 | > 57.6 |
| O=C(CSc1ncccn1)NCC1CCCO1 (stereo unspecified) | > 38 |
| O=C(Nc1ccc(Br)cn1)C1CCN(S(=O)(=O)c2cccs2)CC1 | < 0.3 |
| CC(=O)Nc1ccc(S(=O)(=O)N(C)CC(=O)NNC(=O)Cc2nc3ccccc3n2C)cc1 | > 70.9 |
| CCOc1nc(Nc2ccccc2)nc(OCC)n1 | 38 (≈ 146 µM) |
| CCCC(C(=O)O)n1c(O)c(C=C2N=c3ccccc3=N2)sc1=S (stereo unspecified) | > 54.2 |
| Cn1c(CNc2ccc(F)cc2)nc2ccccc21 | > 38.3 |
| NC(=S)Nc1cc(Cl)cc(Cl)c1 | 33 (≈ 149 µM) |
| Cc1nc2c(Cl)cccc2c2c1CC(CBr)O2 (stereo unspecified) | 12.5 (≈ 40 µM) |
| CC(C)NC(NC(=O)/C=C/c1ccccc1)C(Cl)(Cl)Cl (stereo unspecified) | 44.7 (≈ 133 µM) |
| CC1(C)Cc2ccccc2-c2nc3n(c(=O)c21)CCCS3 | 0.9 (≈ 3.02 µM) |
| O=C(c1ccc2[nH]c(=O)c(=O)[nH]c2c1)N1CCc2ccccc2C1 | > 48.2 |
| COc1ccc(CN(C(=O)c2cccs2)c2ccccc2)cc1 | 8.8 (≈ 27.2 µM) |
| COC(=O)c1c(C)[nH]c(C)c1C(C)=O | > 29.3 |

— PubChem BioAssay AID1996
